Source: PMC12234328, “A naphthalimide derivative exerts potent antiplatelet and antithrombotic activities without a bleeding tendency” (Frontiers in Pharmacology, 2025)

Legend:
[1] = tested on: collagen/epinephrine-induced pulmonary thrombosis; test: Collagen/epinephrine-induced pulmonary embolism in mice; format: in vivo; conditions: 1.2 mg/kg i.v., relative to DMSO group
Experimental: Pulmonary embolism was induced using collagen and epinephrine in […] ICR mice according. Briefly, mice were intravenously injected with a bolus dose of DMSO (1.1 g/kg, solvent control), compound 6 (1.2 mg/kg), or aspirin (20 mg/kg, positive control). Subsequently, a mixture of collagen (0.6 mg/kg) and epinephrine (0.2 mg/kg) was administered via the tail vein. When respiration became severely weakened but the heart was still beating, 0.5 mL of Evans blue solution (1% in saline) was injected into the heart. The lungs were then excised and photographed. Mouse mortality was monitored for 24 h, and all surviving mice were euthanized immediately after the experiment. Each group consisted of six animals.
FIGURE 4 Effects of compound 6 on collagen/epinephrine-induced pulmonary thrombosis and FeCl3-induced thrombosis in mesenteric artery. Mice were intravenously administered with DMSO (solvent control), compound 6 (1.2 mg/kg), or aspirin (20 mg/kg, positive control) for 10 min (A) Mice were injected with collagen/epinephrine to induce pulmonary embolism, which was detected through staining with Evans blue (left panel). The survival rate was recorded for 24 h (right panel). […]
(A) Mice were injected with collagen/epinephrine to induce pulmonary embolism, which was detected through staining with Evans blue. (B) The survival rate was recorded for 24 h. […]

[2] = tested on: FeCl3-induced thrombosis in mesenteric artery; test: FeCl3-induced mesenteric artery thrombosis in mice; format: in vivo; conditions: 1.2 mg/kg i.v., 30% FeCl3, relative to DMSO group
Experimental: Mice were anesthetized with an oxygen–air mixture containing 3% isoflurane at a gas flow rate of 1.5–2 L/min. To label platelets, they were injected with the fluorescent dye rhodamine 6G (0.6 mg/kg). 10 min before FeCl3 treatment, mice were intravenously administered DMSO (1.1 g/kg, solvent control), compound 6 (1.2 mg/kg), or aspirin (20 mg/kg, positive control). The mesenteric arteries were surgically exposed and injured by applying a filter paper saturated with 30% FeCl3 for 5 min to induce thrombosis. Thrombus formation was then continuously monitored using a fluorescence microscope (Olympus, Tokyo, Japan).
FIGURE 4 Effects of compound 6 on collagen/epinephrine-induced pulmonary thrombosis and FeCl3-induced thrombosis in mesenteric artery. Mice were intravenously administered with DMSO (solvent control), compound 6 (1.2 mg/kg), or aspirin (20 mg/kg, positive control) for 10 min (A) Mice were injected with collagen/epinephrine to induce pulmonary embolism, which was detected through staining with Evans blue (left panel). The survival rate was recorded for 24 h (right panel). Data are presented as means ± SEM (n = 6). **p < 0.01 compared with the sham group. #p < 0.05 compared with the DMSO (solvent control) group. (B) FeCl3-induced thrombosis in mesenteric artery as observed under real-time fluorescent microscopy. […] Scale bar = 100 µm. […]

recombinant human GPVI = biological target: T1, recombinant human GPVI (Homo sapiens, UniProt Q9HCN6); test: Surface plasmon resonance binding assay (OpenSPR); conditions: his-tagged recombinant GPVI on NTA chip, compound at 0.1 and 1 μM; read-out: KD (equilibrium dissociation constant)
T1 sequence (Q9HCN6 21-267 limits assumed): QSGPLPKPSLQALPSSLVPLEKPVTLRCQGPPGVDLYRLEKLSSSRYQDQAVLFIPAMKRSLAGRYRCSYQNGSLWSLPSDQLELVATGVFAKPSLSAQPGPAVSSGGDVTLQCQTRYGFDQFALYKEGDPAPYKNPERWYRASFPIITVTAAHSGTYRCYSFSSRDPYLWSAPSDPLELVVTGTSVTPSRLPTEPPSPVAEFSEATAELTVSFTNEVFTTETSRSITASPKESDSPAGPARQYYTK
Experimental: Surface plasmon resonance (SPR) analysis was performed using an OpenSPR instrument (Nicoya, Kitchener, Canada). A nitrilotriacetic acid (NTA) sensor chip was installed in the OpenSPR instrument. Running buffer (phosphate-buffered saline) was pumped at the maximum flow rate, and 80% isopropanol was injected to remove any bubbles. Subsequently, 200 μL of a 200 mM imidazole solution was injected to prime the sensor surface. After rinsing the chip with running buffer, 200 μL of a 40 mM NiCl2 solution was used to activate the NTA chip. After 5 min of interaction time, his-tagged recombinant GPVI proteins were bound to the NTA chip by perfusing the GPVI protein solution at a flow rate of 20 μL/min. Solutions of compound 5 or compound 6 (0.1 and 1 μM) were then injected. The equilibrium dissociation constant (KD) was determined using the OpenSPR system (Nicoya).
An SPR binding assay was performed. First, recombinant human GPVI was coated on the NTA sensor chip. Solutions of compound 5 and compound 6 (0.1 and 1 μM) were then perfused on the chip, and the KD was determined using the OpenSPR system (Nicoya Lifesciences).
FIGURE 7 Direct binding of compound 6 on GPVI. […] Equilibrium dissociation constant (KD) were determined using the OpenSPR system. […]

Compound: CCCCN1C(=O)c2cccc3c(NCCNC(=O)C45CC6CC(CC(C6)C4)C5)ccc(c23)C1=O [compound 6]
- Collagen/epinephrine-induced pulmonary thrombosis (Evans blue staining of lung) [1]: could prevent
- Platelet accumulation on the injured vessels (rhodamine 6G-labeled platelets) [2]: delayed platelet accumulation
- Kd (recombinant human GPVI): 160 nM
